Data published in paper PMC12362783 (Advanced Science, 2025).

Columns and labels:
ATR = molecular target: T1, ATR (Homo sapiens, UniProt Q13535); assay: ATR kinase inhibition, Mobility Shift Assay; format: biochemical; details: n = 3, mean ± SD
T1 construct: purchased Eurofins 14-953
Method: The in vitro ATR kinase inhibitory activities were determined by ChemPartner Co., Ltd. (Shanghai, China) using the Mobility Shift Assay. The tested compound was dissolved with DMSO and diluted to 1000/3 × of the final desired highest inhibitor concentration in the reaction. […] The assay wells were incubated at 28 °C for 4 h.

MDA‐MB‐468 cells [1] = assay: Western blotting analysis; format: cell-based; details: 48 h
Method: Cells were washed with cold PBS and lysed in RIPA buffer containing protease inhibitors (MCE, HY‐K0010). The lysate was centrifuged (13 000 rpm, 4 °C, 15 min); the protein concentrations were determined by the BCA Assay Kit (Beyotime, p0012s). Proteins were loaded onto 10% SDS‐PAGE gel and then transferred onto polyvinylidene fluoride (Millipore) membranes. The membranes were blocked for 1 h, incubated with primary antibodies overnight at 4 °C, and then washed three times with Tris‐buffered saline with Tween 20 (TBST) for 10 min. After incubating with the secondary HRP antibody for 1 h at room temperature, the membranes were washed three times with TBST for 10 min and then exposed on autoradiograph films using enhanced chemiluminescence. The primary antibodies used were ATR (1/1000 dilution, CST#13 934), PARP1 (1/1000 dilution, CST#9532), BCL‐2 (1/1000 dilution, CST#4223), Bax (1/1000 dilution, CST#5023), Caspase 3 (1/1000 dilution, CT#9662), Cleaved caspase 3 (1/1000 dilution, CST#9661), E‐cadherin (1/1000 dilution, CST#3195), Vimetin (1/1000 dilution, CST#5741), p‐CHK1 (1/1000 dilution, CST#2348), CHK1 (1/1000 dilution, CST#2360), CDK1 (Proteintech#19532‐1‐AP), p‐CDK1 (CST#9114), γH2AX (1/1000 dilution, CST#9718), and β‐Actin (1/1000 dilution, Proteintech# 66009‐1‐Ig).

MDA‐MB‐468 cells [2] = assay: Cell apoptosis assay, Annexin V‐FITC/PI; format: cell-based; details: MDA‐MB‐468, 72 h
Method: (§1) The cell apoptosis analysis was performed with cells seeded in 6‐well plates in growth media. The cells were allowed to attach overnight (8 h). The cultures were treated with different tested drugs for 72 h and evaluated using an Annexin V Flow Kit (BioLegend#B367750) according to the manufacturer's instructions. The data were analyzed by FlowJo software (Tree Star, Inc., Ashland, OR).

MDA‐MB‐231 cells [3] = assay: Cell apoptosis assay, Annexin V‐FITC/PI; format: cell-based; details: MDA‐MB‐231, 72 h
Method: as §1

[4] = Oral bioavailability (statement, no method); format: in vivo; details: preclinical models; necessitates I.P. delivery
PARP5B = PARP5B (Homo sapiens, UniProt Q9H2K2); assay: PARP family selectivity; format: biochemical
PARP5B, sequence (Q9H2K2 whole entry, species assumed): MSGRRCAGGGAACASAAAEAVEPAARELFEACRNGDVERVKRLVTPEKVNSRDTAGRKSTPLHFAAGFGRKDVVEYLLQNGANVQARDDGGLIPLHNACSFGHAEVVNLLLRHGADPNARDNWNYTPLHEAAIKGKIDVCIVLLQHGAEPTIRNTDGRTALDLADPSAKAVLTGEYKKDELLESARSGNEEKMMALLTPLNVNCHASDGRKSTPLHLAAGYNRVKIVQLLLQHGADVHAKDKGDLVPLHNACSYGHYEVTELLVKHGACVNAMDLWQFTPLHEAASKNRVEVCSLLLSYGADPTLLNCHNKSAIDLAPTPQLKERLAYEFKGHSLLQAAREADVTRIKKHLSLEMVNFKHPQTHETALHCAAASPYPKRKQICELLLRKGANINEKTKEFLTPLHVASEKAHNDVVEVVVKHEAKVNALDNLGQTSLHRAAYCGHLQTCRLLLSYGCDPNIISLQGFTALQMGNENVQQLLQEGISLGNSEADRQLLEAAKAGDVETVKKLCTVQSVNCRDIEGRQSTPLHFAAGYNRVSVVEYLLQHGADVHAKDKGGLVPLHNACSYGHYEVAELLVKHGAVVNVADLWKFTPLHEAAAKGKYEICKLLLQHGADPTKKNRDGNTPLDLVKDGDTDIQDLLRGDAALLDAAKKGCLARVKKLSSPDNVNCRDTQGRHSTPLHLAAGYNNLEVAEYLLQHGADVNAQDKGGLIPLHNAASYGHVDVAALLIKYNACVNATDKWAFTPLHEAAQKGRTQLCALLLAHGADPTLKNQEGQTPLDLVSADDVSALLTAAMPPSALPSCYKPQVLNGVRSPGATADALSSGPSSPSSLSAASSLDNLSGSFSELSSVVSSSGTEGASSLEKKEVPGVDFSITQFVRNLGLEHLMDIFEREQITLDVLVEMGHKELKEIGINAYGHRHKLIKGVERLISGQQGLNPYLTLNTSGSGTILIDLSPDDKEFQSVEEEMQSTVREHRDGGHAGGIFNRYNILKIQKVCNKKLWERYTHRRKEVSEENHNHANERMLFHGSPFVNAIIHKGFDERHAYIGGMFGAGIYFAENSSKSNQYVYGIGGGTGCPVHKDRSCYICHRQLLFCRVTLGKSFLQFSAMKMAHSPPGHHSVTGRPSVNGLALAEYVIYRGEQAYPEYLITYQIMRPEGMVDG
Method: (§2) The PARP activity assay was performed by ChemPartner (Shanghai, China). Each well was precoated with histone (final conc.: 100 ng mL^−1) diluted in PBS buffer (contains 10 mmol L^−1 NaH2PO4 and 150 mmol L^−1 NaCl, pH 7.4) by incubation at 4 °C overnight. […] The reaction was initiated by the addition of 10 µL of PARP (final conc.: 0.007 nM/well) at room temperature for 60 min. Add 20 µL of anti‐Poly/Mono‐ADP Ribose Rabbit mAb. Incubate for 1.5 h at room temperature and wash the plate three times using PBST buffer. Add 20 µL of diluted (1:2000) anti‐rabbit IgG, HRP‐linked Antibody. Incubate for 1 h at room temperature and wash the plate three times using PBST buffer. Add 25 µL Femto‐ECL Substrate A and Femto‐ECL Substrate B (1:1) mix. Immediately read chemiluminescence on Envision (Revvity, USA).

PARP5A = PARP5A (Homo sapiens, UniProt O95271); assay: PARP family selectivity; format: biochemical
PARP5A, sequence (O95271 whole entry, species assumed): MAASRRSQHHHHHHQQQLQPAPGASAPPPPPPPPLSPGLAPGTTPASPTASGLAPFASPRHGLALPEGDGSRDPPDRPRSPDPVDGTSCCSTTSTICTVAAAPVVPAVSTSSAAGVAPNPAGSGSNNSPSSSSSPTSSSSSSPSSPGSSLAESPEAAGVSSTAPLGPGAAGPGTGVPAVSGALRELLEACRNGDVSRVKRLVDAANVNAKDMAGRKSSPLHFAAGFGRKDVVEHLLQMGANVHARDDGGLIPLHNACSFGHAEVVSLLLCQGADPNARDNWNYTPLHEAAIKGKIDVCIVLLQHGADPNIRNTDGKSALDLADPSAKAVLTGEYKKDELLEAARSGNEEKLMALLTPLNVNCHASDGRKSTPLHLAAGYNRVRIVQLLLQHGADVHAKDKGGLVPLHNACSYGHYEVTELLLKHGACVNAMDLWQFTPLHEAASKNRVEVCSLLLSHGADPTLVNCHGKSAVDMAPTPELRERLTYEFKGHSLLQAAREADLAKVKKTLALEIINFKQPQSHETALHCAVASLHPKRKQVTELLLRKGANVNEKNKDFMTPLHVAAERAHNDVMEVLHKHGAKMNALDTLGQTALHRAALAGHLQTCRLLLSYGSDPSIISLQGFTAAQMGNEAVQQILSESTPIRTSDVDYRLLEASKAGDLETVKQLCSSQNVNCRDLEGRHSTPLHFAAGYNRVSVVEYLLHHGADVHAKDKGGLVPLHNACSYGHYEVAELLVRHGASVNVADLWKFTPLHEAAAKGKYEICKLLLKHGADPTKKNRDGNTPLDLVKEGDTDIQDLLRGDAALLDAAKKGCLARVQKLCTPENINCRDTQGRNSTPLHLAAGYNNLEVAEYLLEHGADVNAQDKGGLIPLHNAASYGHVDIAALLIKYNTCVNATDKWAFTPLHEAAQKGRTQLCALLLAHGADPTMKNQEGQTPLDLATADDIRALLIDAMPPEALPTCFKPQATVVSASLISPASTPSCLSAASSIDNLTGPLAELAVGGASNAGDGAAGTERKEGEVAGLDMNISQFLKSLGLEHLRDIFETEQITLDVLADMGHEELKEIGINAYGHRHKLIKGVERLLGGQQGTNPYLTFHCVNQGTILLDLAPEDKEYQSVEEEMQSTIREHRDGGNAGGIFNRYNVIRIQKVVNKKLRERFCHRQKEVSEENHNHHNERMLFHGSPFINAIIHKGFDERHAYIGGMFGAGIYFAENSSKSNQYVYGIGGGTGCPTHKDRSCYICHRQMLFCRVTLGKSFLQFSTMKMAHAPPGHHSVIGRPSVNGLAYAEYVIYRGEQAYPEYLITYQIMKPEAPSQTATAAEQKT
Method: as §2

MDA‐MB‐231 cells [5] = assay: Comet assay, DNA damage; format: cell-based; details: 24 h, vs AZD6738, Olaparib, and their combination
MDA‐MB‐231 cells [6] = assay: Wound‐healing and transwell migration assay; format: cell-based; details: vs AZD6738 and Olaparib alone or their combination
Method: For the wound‐healing assay, MDA‐MB‐231 cells were seeded into 6‐well plates and grown to 80% confluence. A scratch was made in the cell monolayer using a 20 µL pipette tip, and the cells were washed with PBS to remove floating cells and debris. The cells were then incubated in serum‐free medium. Cells are divided into control and drug treatment Cells in the scratched area were imaged at 0 and 48 h using microscopy, and the distance traveled by cells at the leading edge of the wound at each time point was measured. To assess cell migration, a transwell assay was performed. […] Following 24 h of incubation, the filters were fixed in 4% paraformaldehyde, stained with 0.1% crystal violet, and then imaged and counted under a microscope to determine the number of invading cells. To assess cell invasion, the transwell plate was coated with a layer of Matrigel, and the rest procedure is similar to what has been described above.

PI3Kα = PI3Kα (Homo sapiens, UniProt P42336); assay: PIKK family kinase selectivity; format: biochemical
PARP7 = PARP7 (Homo sapiens, UniProt Q7Z3E1); assay: PARP family selectivity; format: biochemical
PARP7, sequence (Q7Z3E1 whole entry, species assumed): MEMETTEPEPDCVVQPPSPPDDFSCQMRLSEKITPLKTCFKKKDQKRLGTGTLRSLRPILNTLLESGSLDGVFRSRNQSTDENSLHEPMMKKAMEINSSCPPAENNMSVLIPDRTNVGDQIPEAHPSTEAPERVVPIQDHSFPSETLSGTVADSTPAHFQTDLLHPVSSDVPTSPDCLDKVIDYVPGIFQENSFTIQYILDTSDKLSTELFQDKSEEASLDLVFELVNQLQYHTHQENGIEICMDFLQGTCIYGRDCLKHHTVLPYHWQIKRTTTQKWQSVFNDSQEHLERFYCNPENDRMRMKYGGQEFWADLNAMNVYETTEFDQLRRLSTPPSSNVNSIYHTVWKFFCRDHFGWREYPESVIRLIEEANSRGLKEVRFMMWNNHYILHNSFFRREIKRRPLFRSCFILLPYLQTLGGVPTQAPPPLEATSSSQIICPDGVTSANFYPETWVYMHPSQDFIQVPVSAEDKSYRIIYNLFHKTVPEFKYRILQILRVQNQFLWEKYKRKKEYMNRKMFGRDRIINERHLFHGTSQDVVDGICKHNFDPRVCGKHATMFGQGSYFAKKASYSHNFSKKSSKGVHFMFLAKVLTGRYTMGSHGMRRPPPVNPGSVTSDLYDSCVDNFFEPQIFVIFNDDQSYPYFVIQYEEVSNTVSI
Method: as §2, with “Add 20 µL of diluted (1:2000) anti‐rabbit IgG, HRP‐linked Antibody.” left out

PARP2 = PARP2 (Homo sapiens, UniProt Q9UGN5); assay: PARP family selectivity; format: biochemical
PARP2, sequence (Q9UGN5 whole entry, species assumed): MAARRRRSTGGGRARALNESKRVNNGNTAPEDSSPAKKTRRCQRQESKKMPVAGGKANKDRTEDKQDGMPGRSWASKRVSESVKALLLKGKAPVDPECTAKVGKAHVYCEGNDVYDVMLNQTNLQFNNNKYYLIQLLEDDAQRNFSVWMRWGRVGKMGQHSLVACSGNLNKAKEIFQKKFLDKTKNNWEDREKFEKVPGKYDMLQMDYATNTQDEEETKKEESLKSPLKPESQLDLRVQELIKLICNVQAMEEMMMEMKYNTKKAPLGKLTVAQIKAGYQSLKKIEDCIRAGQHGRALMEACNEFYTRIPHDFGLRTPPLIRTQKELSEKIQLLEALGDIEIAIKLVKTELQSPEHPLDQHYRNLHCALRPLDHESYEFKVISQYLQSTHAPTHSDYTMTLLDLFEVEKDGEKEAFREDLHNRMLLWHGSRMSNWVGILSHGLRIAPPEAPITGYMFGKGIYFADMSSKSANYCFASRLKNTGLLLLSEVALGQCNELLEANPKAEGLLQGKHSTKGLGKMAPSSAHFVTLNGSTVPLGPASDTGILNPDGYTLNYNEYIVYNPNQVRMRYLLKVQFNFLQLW
Method: as §2, with “Add 20 µL of diluted (1:2000) anti‐rabbit IgG, HRP‐linked Antibody.” left out

PARP1 = PARP1 (Homo sapiens, UniProt P09874); assay: PARP enzymatic inhibition ELISA (PARP1); format: biochemical; details: n = 3, mean ± SD
PARP1, sequence (P09874 whole entry): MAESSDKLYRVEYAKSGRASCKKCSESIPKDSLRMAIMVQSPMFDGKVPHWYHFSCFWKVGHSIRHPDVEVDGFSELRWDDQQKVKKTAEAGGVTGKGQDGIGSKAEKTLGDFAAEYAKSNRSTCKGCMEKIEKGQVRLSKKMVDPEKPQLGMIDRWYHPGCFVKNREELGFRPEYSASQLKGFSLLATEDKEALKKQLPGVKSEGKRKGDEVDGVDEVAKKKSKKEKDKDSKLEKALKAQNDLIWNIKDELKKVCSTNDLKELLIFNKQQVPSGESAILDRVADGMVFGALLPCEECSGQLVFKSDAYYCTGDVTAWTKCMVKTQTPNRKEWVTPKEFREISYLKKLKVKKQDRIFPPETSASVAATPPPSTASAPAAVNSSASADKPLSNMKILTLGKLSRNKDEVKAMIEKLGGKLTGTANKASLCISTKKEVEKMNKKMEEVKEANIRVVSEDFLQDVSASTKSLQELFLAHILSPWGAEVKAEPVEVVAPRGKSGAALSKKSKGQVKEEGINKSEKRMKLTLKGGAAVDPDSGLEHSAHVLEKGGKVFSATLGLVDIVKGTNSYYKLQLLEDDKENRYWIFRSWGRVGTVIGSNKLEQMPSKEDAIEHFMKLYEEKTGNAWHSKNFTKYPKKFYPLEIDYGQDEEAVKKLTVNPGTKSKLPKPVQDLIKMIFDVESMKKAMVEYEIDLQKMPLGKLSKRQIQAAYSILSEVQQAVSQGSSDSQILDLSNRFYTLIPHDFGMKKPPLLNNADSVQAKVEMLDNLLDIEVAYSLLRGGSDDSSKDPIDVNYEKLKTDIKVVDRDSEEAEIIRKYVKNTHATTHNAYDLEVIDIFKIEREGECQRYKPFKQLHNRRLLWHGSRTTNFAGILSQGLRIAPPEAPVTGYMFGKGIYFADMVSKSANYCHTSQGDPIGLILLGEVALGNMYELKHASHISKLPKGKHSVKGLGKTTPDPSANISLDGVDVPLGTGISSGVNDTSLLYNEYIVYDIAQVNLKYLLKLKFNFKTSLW

[7] = compared to the combination group

SMILES: C[C@@H]1COCCN1c1cc(CNC(=O)c2ccc(C(=O)N3CCN(C(=O)c4cc(Cc5n[nH]c(=O)c6ccccc56)ccc4F)CC3)cc2)nc(-c2ccnc3[nH]ccc23)n1 [Compound B8, (R)‐4‐(4‐(2‐fluoro‐5‐((4‐oxo‐3,4‐dihydrophthalazin‐1‐yl)methyl)benzoyl)piperazine‐1‐carbonyl)‐N‐((6‐(3‐methylmorpholino)‐2‐(1H‐pyrrolo[2,3‐b]pyridin‐4‐yl)pyrimidin‐4‐yl)methyl) benzamide]
- IC50 (ATR): 17.3 ± 2.5 nM
- BCL‐2 protein expression (Western blot) (MDA‐MB‐468 cells [1]): significantly decreased the protein expression of BCL‐2
- CDK1 Tyr15 phosphorylation (Western blot) (MDA‐MB‐468 cells [1]): enhanced CDK1 Tyr15 phosphorylation
- CHK1 Ser345 phosphorylation (Western blot) (MDA‐MB‐468 cells [1]): significantly decreased CHK1 Ser345 phosphorylation
- E‐cadherin expression (Western blot) (MDA‐MB‐468 cells [1]; [7]): significant increase in the expression of the epithelial cell marker E‐cadherin
- Vimentin expression (Western blot) (MDA‐MB‐468 cells [1]; [7]): decrease in the expression of the mesenchymal cell marker Vimentin
- BAX and cleaved‐caspase‐3 protein expression (Western blot) (MDA‐MB‐468 cells [1]; compared to the combination of AZD6738 and Olaparib): induced more BAX and cleaved‐caspase‐3 protein expression
- DSB marker γH2AX (Western blot) (MDA‐MB‐468 cells [1]; B8 1.0 and 2.0 µM): significantly increased than under the combination treatment
- protein levels of ATR and PARP1 (Western blot) (MDA‐MB‐468 cells [1]; B8 1.0 and 2.0 µM, vs Olaparib or AZD6738 alone or in combination): reduction in the protein levels of both ATR and PARP1
- ability to induce apoptosis vs combination of AZD6738 and Olaparib (MDA‐MB‐468 cells [2]): markedly stronger capacity to induce apoptosis
- ability to induce apoptosis vs combination of AZD6738 and Olaparib (MDA‐MB‐231 cells [3]): markedly stronger capacity to induce apoptosis
- oral bioavailability [4]: poor oral bioavailability
- IC50 (PARP5B): 240 nM
- PARP5B (selectivity over PARP1, fold) (PARP5B; fold of PARP1 selectivity over PARP5B): 631.6 fold
- IC50 (PARP5A): 116 nM
- PARP5A (selectivity over PARP1, fold) (PARP5A; fold of PARP1 selectivity over PARP5A): 305 fold
- comet assay tail intensity (MDA‐MB‐231 cells [5]): markedly increased tail intensity
- migratory capacity (MDA‐MB‐231 cells [6]): superior inhibitory effect on the migratory capacity
- IC50 (PI3Kα): > 2500 nM
- IC50 (PARP7): 28.5 ± 1.3 nM
- PARP7 (selectivity over PARP1, fold) (PARP7; fold of PARP1 selectivity over PARP7): 75 fold
- IC50 (PARP2): 5.1 nM
- PARP2 (selectivity over PARP1, fold) (PARP2; fold of PARP1 selectivity over PARP2): 13.4 fold
- IC50 (PARP1): 0.38 ± 0.08 nM
